Results published in ChEMBL document CHEMBL1201862, “PubChem BioAssay data set” (2004).
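Assay format: 96-well plates, 48-hour exposure. GI50: concentration for 50% inhibition of growth.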 Calls of active or inactive are those of the source. No stated cut-off is given here; in the data, active = GI50 up to about 1.1 µM and inactive = higher. Where a SMILES comes first, the peptide text is derived from it. [ ]: non-standard residue; d: D form. The star is where a group is joined. Chg = N[CH](C(=O)O)C1CCCCC1; Cbz = O=C(OCc1ccccc1)*; OBn = c1ccc(CO*)cc1

Legend:
Test in all cases: DTP human tumour cell line panel, 48 h
HCT-116 = test system: HCT-116
SK-MEL-2 = test system: SK-MEL-2
SK-OV-3 = test system: SK-OV-3
SW-620 = test system: SW-620
A549 = test system: A549
TK-10 = test system: TK-10
COLO 205 = test system: COLO 205
UACC-62 = test system: UACC-62
786-0 = test system: 786-0
RXF 393 = test system: RXF 393
RPMI-8226 = test system: RPMI-8226
Hs-578T = test system: Hs-578T
K562 = test system: K562
SF-268 = test system: SF-268
MOLT-4 = test system: MOLT-4
U-251 = test system: U-251
LOX IMVI = test system: LOX IMVI
NCI/ADR-RES = test system: NCI/ADR-RES
M14 = test system: M14
NCI-H522 = test system: NCI-H522

Measured: GI50

C=C(CN(C)C)C(=O)c1ccccc1OC
inactive: HCT-116 15.6 µM | SK-MEL-2 14.4 µM | SK-OV-3 47.5 µM | SW-620 4.31 µM | A549 > 67.8 µM | TK-10 16.1 µM | COLO 205 3.53 µM | UACC-62 21 µM | 786-0 13.9 µM | RXF 393 7.85 µM | RPMI-8226 5.28 µM | Hs-578T 20.7 µM | K562 4.35 µM | SF-268 25.2 µM | MOLT-4 2.46 µM | U-251 24.5 µM | LOX IMVI 13.8 µM | NCI/ADR-RES 20.7 µM | M14 12 µM | NCI-H522 2.04 µM

CCOC(=O)C1C(=O)CC(O)(c2ccccc2)C(C(=O)OCC)C1c1ccc(N(C)C)cc1 (stereo not given)
inactive: HCT-116 23.8 µM | SK-MEL-2 33 µM | SK-OV-3 18.2 µM | SW-620 19.8 µM | A549 35.5 µM | TK-10 > 59.8 µM | COLO 205 17.6 µM | UACC-62 33.4 µM | 786-0 26.7 µM | RXF 393 14.7 µM | RPMI-8226 13.3 µM | Hs-578T 2.1 µM | K562 6.21 µM | SF-268 24.9 µM | MOLT-4 23.5 µM | U-251 24.7 µM | LOX IMVI 27.5 µM | NCI/ADR-RES 26.6 µM | M14 35.6 µM | NCI-H522 9.71 µM

COc1cc(/C=C2/SC(c3ccccc3)N(c3ccc(Cl)cc3)C2=O)cc(OC)c1OC (stereo not given)
active: HCT-116 0.897 µM | K562 0.244 µM | M14 0.964 µM
inactive: SK-MEL-2 > 20.6 µM | SK-OV-3 9.48 µM | SW-620 57.4 µM | A549 > 41.5 µM | TK-10 > 100 µM | COLO 205 1.3 µM | UACC-62 2.02 µM | 786-0 > 100 µM | RXF 393 49.7 µM | RPMI-8226 2.99 µM | Hs-578T > 100 µM | SF-268 19.5 µM | MOLT-4 15.7 µM | U-251 > 72.6 µM | LOX IMVI 50.8 µM | NCI/ADR-RES 25.9 µM | NCI-H522 18.3 µM

Nc1ccc2c(=O)cc(-c3cccs3)[nH]c2n1
inactive: HCT-116 1.25 µM | SK-MEL-2 6.32 µM | SK-OV-3 5.25 µM | A549 3.65 µM | TK-10 7.13 µM | UACC-62 2.3 µM | 786-0 3.45 µM | RXF 393 4.17 µM | RPMI-8226 1.54 µM | Hs-578T 3.66 µM | SF-268 8.93 µM | MOLT-4 1.51 µM | U-251 2.75 µM | M14 1.6 µM | NCI-H522 1.36 µM
active: SW-620 1.01 µM | COLO 205 0.716 µM | K562 0.847 µM | LOX IMVI 1.07 µM | NCI/ADR-RES 1.06 µM

O=[N+]([O-])c1cc(F)ccc1S(=O)(=O)c1ccccc1
inactive: HCT-116 > 10 µM | SK-MEL-2 > 10 µM | SK-OV-3 > 10 µM | SW-620 > 10 µM | A549 > 10 µM | TK-10 > 10 µM | COLO 205 > 10 µM | UACC-62 > 10 µM | 786-0 > 10 µM | RXF 393 > 10 µM | RPMI-8226 > 10 µM | Hs-578T > 10 µM | K562 > 10 µM | SF-268 > 10 µM | MOLT-4 > 10 µM | U-251 > 10 µM | LOX IMVI > 10 µM | NCI/ADR-RES > 10 µM | M14 > 10 µM | NCI-H522 2.22 µM

COC(=O)C(NC(=O)C(CC(=O)OCc1ccccc1)NC(=O)OCc1ccccc1)C1CCCCC1 (stereo not given) (Cbz-Asp(OBn)-[Chg]-OMe; configuration not given here)
inactive: HCT-116 > 100 µM | SK-MEL-2 51.9 µM | SK-OV-3 > 100 µM | SW-620 > 100 µM | A549 > 100 µM | TK-10 > 100 µM | COLO 205 > 100 µM | UACC-62 > 100 µM | 786-0 > 100 µM | RXF 393 > 100 µM | RPMI-8226 48.2 µM | K562 > 100 µM | SF-268 > 100 µM | MOLT-4 38.3 µM | U-251 > 100 µM | LOX IMVI > 100 µM | NCI/ADR-RES > 100 µM | M14 > 100 µM | NCI-H522 > 100 µM
active: Hs-578T < 0.01 µM

NC(=O)c1ccc(N)nc1 [6-AMINONICOTINAMIDE]
active: RXF 393 0.138 µM
inactive: HCT-116 > 187 µM | SK-MEL-2 124 µM | SK-OV-3 > 400 µM | SW-620 82 µM | A549 54.5 µM | TK-10 > 400 µM | COLO 205 14.2 µM | UACC-62 16.1 µM | 786-0 3.54 µM | RPMI-8226 9.75 µM | Hs-578T 6.17 µM | K562 16.7 µM | SF-268 19.1 µM | MOLT-4 38.6 µM | U-251 1.85 µM | LOX IMVI 3.35 µM | NCI/ADR-RES > 245 µM | M14 6.24 µM | NCI-H522 99.8 µM

CC(=O)OC(C)(C)/C=C/C(=O)[C@](C)(O)[C@H]1[C@H](O)C[C@@]2(C)[C@@H]3CC=C4[C@@H](C=C(O)C(=O)C4(C)C)[C@]3(C)C(=O)C[C@]12C [CUCURBITACIN E]
active: HCT-116 0.034 µM | SK-MEL-2 0.0139 µM | SK-OV-3 0.0436 µM | SW-620 0.0438 µM | A549 0.0296 µM | TK-10 0.0479 µM | COLO 205 0.0191 µM | UACC-62 0.065 µM | 786-0 0.0339 µM | RXF 393 0.0177 µM | RPMI-8226 0.041 µM | Hs-578T 0.0473 µM | K562 0.0681 µM | SF-268 0.0275 µM | MOLT-4 0.246 µM | U-251 0.0203 µM | LOX IMVI 0.0101 µM | NCI/ADR-RES 0.129 µM | M14 0.0375 µM | NCI-H522 0.0407 µM

O=P(O)(NCCCl)NCCCl [PALIFOSFAMIDE]
inactive: HCT-116 > 100 µM | SK-MEL-2 > 100 µM | SK-OV-3 > 55.8 µM | SW-620 > 10 µM | A549 81.5 µM | TK-10 > 10 µM | COLO 205 > 100 µM | UACC-62 38.6 µM | 786-0 > 67.8 µM | RXF 393 > 10 µM | RPMI-8226 > 89.5 µM | Hs-578T > 100 µM | K562 > 100 µM | SF-268 57.8 µM | MOLT-4 60.3 µM | U-251 > 10 µM | LOX IMVI 29.9 µM | NCI/ADR-RES > 100 µM | M14 > 100 µM | NCI-H522 > 100 µM
